Measurements published in patent publication US9090776B2, “Squarylium dyes” (Exciton, Inc., priority 2012, dated 2015).

Assay: Solubility of squarylium dye in dichloromethane
Format: physicochemical
From the text: Subsequent conversion to the squarylium dye can yield desirable photophysical, solubility, thermal stability, and/or light stability properties. For example, as shown in the FIGURE, the ortho-, ortho- isomer of compound IV has a solubility of about 0.2 gm/L in dichloromethane, CH2Cl2. In comparison, the corresponding meta-, meta- and para-, para- isomers of compound have solubilities of about 0.6 gm/L and about 0.5 gm/L in CH2Cl2, respectively.

solubility in dichloromethane, CH2Cl2: about 0.6 gm/L
SMILES: CC1N(Cc2cccc(NC(=O)c3ccccc3)c2)c2cc(NC(=O)c3ccccc3)c(C3=C([O-])/C(=c4/cc5c(cc4NC(=O)c4ccccc4)=[N+](Cc4cccc(NC(=O)c6ccccc6)c4)C(C)C5(C)C)C3=O)cc2C1(C)C (stereo not drawn) [meta-, meta- isomer of compound IV]
